Data on 46 compounds can be found in patent US9546153B2, “Bicyclic heterocycle substituted pyridyl compounds useful as kinase modulators” (BRISTOL-MYERS SQUIBB COMPANY, priority 2012, dated 2017).

Experiment [1] relates to TLR2 induced IL-6 in peripheral blood mononuclear cells (PBMCs). The experiment is described as follows: PBMC TLR2 Induced IL-6 Assay. Particulars: human PBMCs, 10 μg/ml lipoteichoic acid for 5 hours, IL-6 by ELISA; for IC50: value without asterisk, read-out: Cell IC50; for EC50: EC50 determinations are indicated with an asterisk, read-out: Cell EC50 (asterisk). Type of experiment: cell-based, human. Here is the method: Peripheral blood mononuclear cells (PBMCs) were isolated from human blood containing the anti-coagulant EDTA (2.5 mM) by centrifugation over a FICOLL® gradient. PBMCs (250000 cells/well) were cultured in assay media (RPMI with 10% heat inactivated FCS) with compounds for 30 minutes at 37° C. in a 5% CO2 incubator. Following pretreatment with compounds, cells were stimulated for 5 hours with 10 μg/ml lipoteichoic acid (Invivogen, San Diego, Calif.), a TLR2 agonist. At the end of the culture, plates were centrifuged at 1800 rpm for 10 minutes to pellet the cells. Supernatants were harvested and analyzed for IL-6 levels by ELISA (BD Biosciences, San Jose, Calif.). Inhibition was calculated as either an IC50 or EC50. EC50 determinations are indicated with an asterisk.
In general terms: An ELISA detects its analyte on a solid surface through an enzyme-linked reagent.

Another experiment concerns the target IRAK4 (Homo sapiens (Human), UniProt Q9NWZ3). Nature of the experiment: IRAK4 Inhibition Assay. Type of experiment: biochemical. To be noted: ATP 500 μM; IRAK4 0.6 nM; 60 min at room temperature. Here is the method: The assays were performed in U-bottom 384-well plates. […] The reaction was initiated by the combination of IRAK4 with substrates and test compounds. The reaction was incubated at room temperature for 60 min. and terminated by adding 45 μL of 35 mM EDTA to each sample. The reaction mixture was analyzed on the Caliper LABCHIP® 3000 (Caliper, Hopkinton, Mass.) by electrophoretic separation of the fluorescent substrate and phosphorylated product.

Values joined by “and” are separate entries in the source; they are usually repeats but may differ in a detail not shown here. Equal values may be shown once. Read-outs that look alike come from different tables or passages of the source.

Chain of IRAK4 (Q9NWZ3 whole entry, species assumed): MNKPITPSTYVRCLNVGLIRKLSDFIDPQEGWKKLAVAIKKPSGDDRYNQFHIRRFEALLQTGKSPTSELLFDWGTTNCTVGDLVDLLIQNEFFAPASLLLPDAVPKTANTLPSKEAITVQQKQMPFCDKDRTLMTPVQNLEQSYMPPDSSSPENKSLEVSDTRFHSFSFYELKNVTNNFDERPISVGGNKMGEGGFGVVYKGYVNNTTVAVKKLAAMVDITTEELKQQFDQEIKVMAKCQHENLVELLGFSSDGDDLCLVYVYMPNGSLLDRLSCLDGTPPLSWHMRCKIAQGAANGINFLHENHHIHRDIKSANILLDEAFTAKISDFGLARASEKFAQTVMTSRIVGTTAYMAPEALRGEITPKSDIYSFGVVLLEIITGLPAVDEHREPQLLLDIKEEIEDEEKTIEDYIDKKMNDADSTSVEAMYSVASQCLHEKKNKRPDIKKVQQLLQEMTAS

As a reminder, the IC50 is the concentration that gives 50% inhibition. For the compound `CNC(=O)c1cnc(Nc2ccc3ncsc3c2)cc1NC1C2CC3CC1CC(O)(C3)C2` (single isomer, unassigned) [Example 146], the concentration for half-maximal inhibition (IC50) in experiment [1] (Homo sapiens, PBMC, 5 h) amounted to 0.55 µM; at IRAK4, 0.0539 µM.

`CNC(=O)c1cnc(Nc2ccc3ncsc3c2)cc1NC1C2CC3CC1CC(O)(C3)C2` (single isomer, unassigned) [Example 147]: the results for the half-inhibitory concentration (IC50) (in experiment [1]; at IRAK4) were 0.507 µM and 0.0174 µM, respectively.

On to `CNC(=O)c1cnc(Nc2ccc3ncsc3c2)cc1NC1C2CC3CC1CC(O)(C3)C2` (single isomer, unassigned) [Example 148], for which the results for the half-maximal inhibitory concentration (IC50) (in experiment [1]; at IRAK4) were 0.456 µM and 0.0245 µM, respectively.

As for `CC(C)(O)[C@H](F)CNC(=O)c1cnc(Nc2ccc3ncsc3c2)cc1NC1CCC(F)C1` (single isomer, unassigned) [Example 362, 6-(benzo[d]thiazol-6-ylamino)-N-(2-fluoro-3-hydroxy-3-methylbutyl)-4-(3-fluorocyclopentylamino)nicotinamide], the results for the half-maximal inhibitory concentration (IC50) (in experiment [1]; on IRAK4) were 0.044 µM and 0.0029 µM, respectively.

As to `CC(C)(O)[C@H](F)CNC(=O)c1cnc(Nc2ccc3ncsc3c2)cc1NC1CCC(F)C1` (single isomer, unassigned) [Example 363, 6-(benzo[d]thiazol-6-ylamino)-N-(2-fluoro-3-hydroxy-3-methylbutyl)-4-(3-fluorocyclopentylamino)nicotinamide], the figures for the IC50 (in experiment [1]; at IRAK4) were 0.087 µM and 0.0025 µM, respectively.

As for `CC(C)(O)[C@H](F)CNC(=O)c1cnc(Nc2ccc3ncsc3c2)cc1NC1CCC(F)C1` (single isomer, unassigned) [Example 364, 6-(benzo[d]thiazol-6-ylamino)-N-(2-fluoro-3-hydroxy-3-methylbutyl)-4-(3-fluorocyclopentylamino)nicotinamide], the concentration for half-maximal inhibition (IC50) in experiment [1] came out at 0.092 µM; at IRAK4 it was 0.0036 µM.

As for `CC(C)(O)[C@H](F)CNC(=O)c1cnc(Nc2ccc3ncsc3c2)cc1NC1CCC(F)C1` (single isomer, unassigned) [Example 365, 6-(benzo[d]thiazol-6-ylamino)-N-(2-fluoro-3-hydroxy-3-methylbutyl)-4-(3-fluorocyclopentylamino)nicotinamide], the IC50 in experiment [1] was found to be 0.097 µM; on IRAK4 it was 0.0058 µM.

`Cc1cc2nc(Nc3cc(NC4CCC(F)C4)c(C(=O)NC[C@@H](F)C(C)(C)O)cn3)ccn2n1` (single isomer, unassigned) [Example 381]: the IC50 was 0.376 µM in experiment [1] (Homo sapiens, PBMC, 5 h) and 0.0061 µM on IRAK4.

Take `CNC(=O)c1cnc(Nc2ccc3c(c2)C(F)(F)C(=O)N3)cc1NC1CCCC1` [Example 1, 4-(cyclopentylamino)-6-(3,3-difluoro-2-oxoindolin-5-ylamino)-N-methylnicotinamide]: the half-maximal inhibitory concentration (IC50) in experiment [1] (Homo sapiens, PBMC, 5 h) was determined as 0.612 µM; at IRAK4, 0.0044 µM.

As for `CCOC(=O)c1cn2c(n1)sc1cc(Nc3cc(NC4CCCC4)c(C(=O)NC)cn3)ccc12` [Example 3], the IC50 in experiment [1] (Homo sapiens, PBMC, 5 h) was found to be 0.18 µM; at IRAK4, 0.0171 µM.

On to `CNC(=O)c1cnc(Nc2nc3ccc(Cl)nc3s2)cc1NC(C)C` [Example 4, 6-(5-chlorothiazolo[5,4-b]pyridin-2-ylamino)-4-(isopropylamino)-N-methylnicotinamide], for which the 50% inhibitory concentration (IC50) in experiment [1] (Homo sapiens, PBMC, 5 h) amounted to 0.639 µM; at IRAK4, 0.0182 µM.

In the case of `CC(C)Nc1cc(Nc2ccc3ncsc3c2)ncc1C(=O)NC[C@@H](F)CO` [Example 5, (R)-6-(benzo[d]thiazol-6-ylamino)-N-(2-fluoro-3-hydroxypropyl)-4-(isopropylamino)nicotinamide], the concentration for half-maximal inhibition (IC50) in experiment [1] (Homo sapiens, PBMC, 5 h) came to 0.484 µM; at IRAK4, 0.0096 µM.

Regarding `CC(C)Nc1cc(Nc2ccc3ncsc3c2)ncc1C(=O)NCCC(C)(C)O` [Example 8], the IC50 was 0.29 µM in experiment [1] (Homo sapiens, PBMC, 5 h) and 0.0041 µM on IRAK4.

As to `CC(C)(O)CCNC(=O)c1cnc(Nc2ccc3ncsc3c2)cc1NC1CC1` [Example 9], the IC50 in experiment [1] (Homo sapiens, PBMC, 5 h) is 0.289 µM; on IRAK4 it was 0.01 µM.

With `O=C(NCCC1(O)CCC1)c1cnc(Nc2ccc3ncsc3c2)cc1NC1CC1` [Example 10], the half-maximal inhibitory concentration (IC50) in experiment [1] (Homo sapiens, PBMC, 5 h) was 0.115 µM; at IRAK4, 0.0051 µM.

Take `CC(C)Nc1cc(Nc2ccc3ncsc3c2)ncc1C(=O)NCCc1ccc(C(N)=O)cc1` [Example 11]: the 50% inhibitory concentration (IC50) in experiment [1] (Homo sapiens, PBMC, 5 h) is 0.726 µM; at IRAK4 it was 0.0078 µM.

Take `CNC(=O)c1ccc(CCNC(=O)c2cnc(Nc3ccc4ncsc4c3)cc2NC(C)C)cc1` [Example 12]: the IC50 is 0.311 µM in experiment [1] (Homo sapiens, PBMC, 5 h) and 0.0056 µM at IRAK4.

For the compound `CC(C)Nc1cc(Nc2ccc3ncsc3c2)ncc1C(=O)NC[C@@H](F)C(O)C(C)C` (stereo partly drawn) [Example 13], the half-inhibitory concentration (IC50) was 0.107 µM in experiment [1] and 0.003 µM on IRAK4.

`CC(C)Nc1cc(Nc2ccc3ncsc3c2)ncc1C(=O)NC[C@@H](F)C(O)C(C)C` (stereo partly drawn) [Example 14]: the half-inhibitory concentration (IC50) came to 0.461 µM in experiment [1] and 0.0043 µM on IRAK4.

For `CC(C)Nc1cc(Nc2ccc3ncsc3c2)ncc1C(=O)NC[C@@H](F)C(O)C1CC1` (stereo partly drawn) [Example 15], the IC50 came out at 0.541 µM in experiment [1] (Homo sapiens, PBMC, 5 h) and 0.0052 µM at IRAK4.

`CC(C)Nc1cc(Nc2ccc3ncsc3c2)ncc1C(=O)NC[C@@H](F)C(O)C1CC1` (stereo partly drawn) [Example 16]: the figures for the IC50 (in experiment [1]; on IRAK4) were 0.595 µM and 0.0052 µM, respectively.

With `CC(C)Nc1cc(Nc2ccc3ncsc3c2)ncc1C(=O)NC[C@@H](F)C(C)(O)C(F)(F)F` (stereo partly drawn) [Example 17], the IC50 came to 0.221 µM in experiment [1] (Homo sapiens, PBMC, 5 h) and 0.0047 µM at IRAK4.

Regarding `CC(C)Nc1cc(Nc2ccc3ncsc3c2)ncc1C(=O)NC[C@@H](F)C(C)(O)C(F)(F)F` (stereo partly drawn) [Example 18], the IC50 came out at 0.269 µM in experiment [1] and 0.0069 µM on IRAK4.

On to `CC1COCCC1Nc1cc(Nc2ccc3ncsc3c2)ncc1C(=O)NC[C@@H](F)C(C)(C)O` (stereo partly drawn) [Example 234], for which the IC50 on IRAK4 is 0.0044 µM and 0.0032 µM.

Turning to `CN(C)C(=O)c1ccc(Nc2cc(Nc3ccc4ncsc4c3)ncc2C(=O)NC[C@@H](F)C(C)(C)O)cc1` [Example 323], the IC50 in experiment [1] (Homo sapiens, PBMC, 5 h) stood at 0.207 µM.

In the case of `CC(C)(O)[C@H](F)CNC(=O)c1cnc(Nc2ccc3ncsc3c2)cc1NC1CCCC1O` (stereo partly drawn) [Example 335], the half-inhibitory concentration (IC50) in experiment [1] (Homo sapiens, PBMC, 5 h) was 0.135 µM.

Regarding `CC(C)(O)[C@H](F)CNC(=O)c1cnc(Nc2ccc3ncoc3c2)cc1N[C@@H]1CCC[C@H]1O` [Example 336], the concentration for half-maximal inhibition (IC50) in experiment [1] (Homo sapiens, PBMC, 5 h) is 0.466 µM.

`CC(C)(O)[C@H](F)CNC(=O)c1cnc(Nc2ccc3ncncc3c2)cc1NC1CCCC1F` (stereo partly drawn) [Example 345]: the IC50 in experiment [1] (Homo sapiens, PBMC, 5 h) was 0.246 µM.

Consider `CC(C)Nc1cc(Nc2ncc3ncccc3n2)ncc1C(=O)NC[C@@H](F)C(C)(C)O` [Example 370], for which the IC50 in experiment [1] (Homo sapiens, PBMC, 5 h) is 0.571 µM.

With `Cc1cc2nc(Nc3cc(NC(C)C)c(C(=O)NC[C@@H](F)C(C)(C)O)cn3)ccn2n1` [Example 379], the IC50 at IRAK4 was 0.0063 µM.

On to `Cc1cc2nc(Nc3cc(NC4CCC(F)C4)c(C(=O)NC[C@@H](F)C(C)(C)O)cn3)ccn2n1` (stereo partly drawn) [Example 380], for which the half-inhibitory concentration (IC50) in experiment [1] was 0.468 µM.

`CC(C)Nc1cc(Nc2ccc3[nH]c(=O)oc3c2)ncc1C(=O)NC[C@@H](F)C(C)(C)O` [Example 393]: the half-maximal inhibitory concentration (IC50) in experiment [1] (Homo sapiens, PBMC, 5 h) is 0.392 µM.

Consider `CC(C)(O)[C@H](F)CNC(=O)c1cnc(Nc2ccc3ncsc3c2)cc1Nc1ccc(-c2cc[nH]n2)cc1` [Example 414], for which, in experiment [1] (Homo sapiens, PBMC, 5 h), the 50% inhibitory concentration (IC50) was determined as 0.256 µM.

Take `CC(C)(O)[C@H](F)CNC(=O)c1cnc(Nc2ccc3ncsc3n2)cc1NC1CCOCC1F` (stereo partly drawn) [Example 418]: the IC50 in experiment [1] was determined as 0.03 µM.

On to `CC(C)(O)[C@H](F)CNC(=O)c1cnc(Nc2ccc3ncccc3n2)cc1NC1CCCOC1` (stereo partly drawn) [Example 431], for which the IC50 in experiment [1] worked out at 0.22 µM.

Regarding `CC(C)(O)[C@H](F)CNC(=O)c1cnc(Nc2ccc3ncccc3n2)cc1NC1CCCOC1` (stereo partly drawn) [Example 432], in experiment [1], the IC50 is 0.503 µM.

In the case of `CC(C)Nc1cc(Nc2ncc3ncsc3c2F)ncc1C(=O)NC[C@@H](F)C(C)(C)O` [Example 440], in experiment [1] (Homo sapiens, PBMC, 5 h), the IC50 worked out at 0.33 µM.

Take `CC(C)(O)[C@H](F)CNC(=O)c1cnc(Nc2nc3ccnn3cc2F)cc1NC1CCCC1F` (stereo partly drawn) [Example 463]: the IC50 in experiment [1] turned out to be 0.204 µM.

In the case of `CC(C)(O)[C@H](F)CNC(=O)c1cnc(Nc2nc3ccnn3cc2F)cc1NC1CCCC1O` (stereo partly drawn) [Example 464], the IC50 in experiment [1] was 0.843 µM.

On to `CC(C)(O)[C@H](F)CNC(=O)c1cnc(Nc2nc3ccnn3cc2F)cc1NC1CCCC1O` (stereo partly drawn) [Example 465], for which the IC50 in experiment [1] was 0.388 µM.

In the case of `CC(C)(O)[C@H](F)CNC(=O)c1cnc(Nc2nc3ccnn3cc2F)cc1N[C@H]1CCC[C@@H]1O` [Example 466], in experiment [1] (Homo sapiens, PBMC, 5 h), the half-maximal inhibitory concentration (IC50) turned out to be 0.212 µM.

Take `CC(C)(O)[C@H](F)CNC(=O)c1cnc(Nc2nc3ccnn3cc2F)cc1NC1CCCC1F` (stereo partly drawn) [Example 471]: the IC50 in experiment [1] was 1.2 µM.

On to `CC(C)(O)[C@H](F)CNC(=O)c1cnc(Nc2nc3ccnn3cc2F)cc1NC1CCCC1F` (stereo partly drawn) [Example 472], for which, in experiment [1], the 50% inhibitory concentration (IC50) was 1.36 µM.

As usually defined, the EC50 is the concentration giving half of the maximal effect. In the case of `CC(C)(O)[C@H](F)CNC(=O)c1cnc(Nc2nc3ccnn3cc2F)cc1N[C@H]1CCC[C@H]1F` [Example 488], the EC50 in experiment [1] (Homo sapiens, PBMC, 5 h) turned out to be 0.192 µM.

As for `CC(C)Nc1cc(Nc2nc3cccnc3cc2F)ncc1C(=O)NC[C@@H](F)C(C)(C)O` [Example 499], in experiment [1] (Homo sapiens, PBMC, 5 h), the EC50 came out at 0.072 µM.

As for `CC(C)Nc1cc(Nc2nc3ccnn3cc2F)ncc1C(=O)NCC(F)(F)C(C)(C)O` [Example 522], the IC50 in experiment [1] (Homo sapiens, PBMC, 5 h) is 0.795 µM.
